The results in this text go back to patent US7238685B2, “Benzo-fused heterocycles as endothelin antagonists” (Actelion Pharmaceuticals Ltd., priority 2001, dated 2007).

The target of assay [1] is T1, human recombinant ETA receptors (Homo sapiens, UniProt P25101).
T1 construct: expressed in transfected cells; host or cells: CHO cells (microsomal membranes)
T1 sequence (P25101 21-427): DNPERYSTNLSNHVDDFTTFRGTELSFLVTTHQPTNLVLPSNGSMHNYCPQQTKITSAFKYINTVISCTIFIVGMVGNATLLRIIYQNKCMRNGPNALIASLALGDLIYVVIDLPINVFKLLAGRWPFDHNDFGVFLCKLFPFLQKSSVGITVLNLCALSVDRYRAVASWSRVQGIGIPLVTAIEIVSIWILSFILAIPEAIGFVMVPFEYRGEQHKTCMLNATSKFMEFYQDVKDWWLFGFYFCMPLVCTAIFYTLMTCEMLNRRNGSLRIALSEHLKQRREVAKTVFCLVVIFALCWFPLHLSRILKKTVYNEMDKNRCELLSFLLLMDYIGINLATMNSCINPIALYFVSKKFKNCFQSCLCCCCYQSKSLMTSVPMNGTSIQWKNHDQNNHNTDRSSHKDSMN
Nature of the assay: Inhibition of endothelin binding to membranes from CHO cells carrying human ET receptors (ETA).

Assay [2] concerns the target T2, human recombinant ETB receptors (Homo sapiens, UniProt P24530).
T2 construct: expressed in transfected cells; host or cells: CHO cells (microsomal membranes)
T2 sequence (P24530 27-442): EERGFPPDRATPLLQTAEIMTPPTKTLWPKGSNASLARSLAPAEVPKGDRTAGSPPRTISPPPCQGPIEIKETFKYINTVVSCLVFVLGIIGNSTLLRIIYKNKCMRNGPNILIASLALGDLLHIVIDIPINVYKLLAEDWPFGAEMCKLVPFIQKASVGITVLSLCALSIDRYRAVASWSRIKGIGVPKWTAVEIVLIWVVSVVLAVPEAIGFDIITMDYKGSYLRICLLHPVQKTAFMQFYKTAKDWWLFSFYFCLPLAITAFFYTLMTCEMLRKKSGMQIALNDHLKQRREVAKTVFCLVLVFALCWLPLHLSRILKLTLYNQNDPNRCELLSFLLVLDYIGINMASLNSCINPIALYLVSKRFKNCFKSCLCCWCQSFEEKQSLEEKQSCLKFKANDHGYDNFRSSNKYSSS
Nature of the assay: Inhibition of endothelin binding to membranes from CHO cells carrying human ET receptors (ETB).

For assay [3], the target named is T3, rat aortic rings (ETA receptors) (Rattus norvegicus, UniProt P26684).
T3 construct: from tissue; host or cells: thoracic aorta rings of adult Wistar rats, endothelium removed
T3 sequence (P26684 21-426): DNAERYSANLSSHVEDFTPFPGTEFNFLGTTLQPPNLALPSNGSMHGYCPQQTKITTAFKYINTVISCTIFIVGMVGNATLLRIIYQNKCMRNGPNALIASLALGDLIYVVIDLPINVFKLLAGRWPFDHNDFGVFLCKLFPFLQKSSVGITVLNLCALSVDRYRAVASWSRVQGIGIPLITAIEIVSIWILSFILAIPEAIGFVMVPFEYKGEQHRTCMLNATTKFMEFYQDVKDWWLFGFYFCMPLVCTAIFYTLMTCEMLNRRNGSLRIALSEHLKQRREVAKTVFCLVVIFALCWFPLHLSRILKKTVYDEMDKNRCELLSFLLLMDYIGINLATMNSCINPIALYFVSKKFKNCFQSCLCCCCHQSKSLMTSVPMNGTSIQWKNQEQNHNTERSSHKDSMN
Kind of assay: Inhibition of endothelin-1-induced contractions on isolated rat aortic rings. The settings on record: read-out: pA2 (aortic rings) (converted).
Description: The functional inhibitory potency of the endothelin antagonists was assessed by their inhibition of the contraction induced by endothelin-1 on rat aortic rings (ETA receptors) and of the contraction induced by sarafotoxin S6c on rat tracheal rings (ETB receptors). Adult Wistar rats were anesthetized and exsanguinated. The thoracic aorta or trachea were excised, dissected and cut in 3–5 mm rings. The endothelium/epithelium was removed by gentle rubbing of the intimal surface. Each ring was suspended in a 10 ml isolated organ bath filled with Krebs-Henseleit solution (in mM; NaCl 115, KCl 4.7, MgSO4 1.2, KH2PO4 1.5, NaHCO3 25, CaCl2 2.5, glucose 10) kept at 37° C. and gassed with 95% O2 and 5% CO2. The rings were connected to force transducers and isometric tension was recorded (EMKA Technologies SA, Paris, France). The rings were stretched to a resting tension of 3 g (aorta) or 2 g (trachea). […] The functional inhibitory potency of the test compound was assessed by calculating the concentration ratio, i.e. the shift to the right of the EC50 induced by different concentrations of test compound. EC50 is the concentration of endothelin needed to get a half-maximal contraction, pA2 is the negative logarithm of the antagonist concentration which induces a two-fold shift in the EC50 value.

Where two headings read alike, the source gives them in different places.

Take `Cc1cc(C)nc(O[C@H](C(=O)O)[C@@]2(c3ccccc3)NCc3nnc(CC(=O)O)n3-c3ccccc32)n1` (racemic) [Example 27, (±)-(S*)-((6S*)-1-carboxymethyl-6-phenyl-5,6-dihydro-4H-2,3,5,10b-tetraaza-benzo[e]azulen-6-yl)-(4,6-dimethyl-pyrimidin-2-yloxy)-acetic acid]: the IC50 in assay [1] amounted to 13 nM; in assay [2], 126 nM.
In the case of `COc1cc(OC)nc(O[C@H](C(=O)O)[C@@]2(c3ccccc3)NCC(=O)N(C)c3ccccc32)n1` (racemic) [Example 39, (±)-(S*)-((5S*)-1-methyl-2-oxo-5-phenyl-2,3,4,5-tetrahydro-1H-benzo[e][1,4]di-azepin-5-yl)-(4,6-dimethoxy-pyrimidin-2-yloxy)-acetic acid], the 50% inhibitory concentration (IC50) was 29 nM in assay [1] (read-out: IC50 ETA) and 701 nM in assay [2] (read-out: IC50 ETB).
For `COc1cc(CN2C(=O)CN[C@](c3ccccc3)([C@H](Oc3nc(OC)cc(OC)n3)C(=O)O)c3ccccc32)cc(OC)c1` (racemic) [Example 40, (±)-(S*)-[(5S*)-1-(3,5-dimethoxy-benzyl)-2-oxo-5-phenyl-2,3,4,5-tetrahydro-1H-benzo[e][1,4]diazepin-5-yl]-(4,6-dimethoxy-pyrimidin-2-yloxy)-acetic acid], in that order: 8 nM and 52 nM.
As for `Cc1cc(C)nc(O[C@H](C(=O)O)[C@@]2(c3ccccc3)NCC(=O)N(C)c3ccccc32)n1` (racemic) [Example 49, (±)-(S*)-(4,6-dimethyl-pyrimidin-2-yloxy)-((5S*)-1-methyl-2-oxo-5-phenyl-2,3,4,5-tetrahydro-1H-benzo[e][1,4]diazepin-5-yl)-acetic acid], the IC50 in assay [1] (read-out: IC50 ETA) was 17 nM; in assay [2] (read-out: IC50 ETB) it was 240 nM.
Turning to `Cc1cc(C)nc(O[C@H](C(=O)O)[C@@]2(c3ccccc3)NCC(=O)N(CC(=O)O)c3ccccc32)n1` (racemic) [Example 50, (±)-(S*)-((5S*)-1-Carboxymethyl-2-oxo-5-phenyl-2,3,4,5-tetrahydro-1H-benzo[e][1,4]diazepin-5-yl)-(4,6-dimethyl-pyrimidin-2-yloxy)-acetoc acid], the half-inhibitory concentration (IC50) in assay [1] (read-out: IC50 ETA) was 12 nM; in assay [2] (read-out: IC50 ETB), 507 nM.
Regarding `Cc1cc(C)nc(O[C@H](C(=O)O)[C@@]2(c3ccccc3)NCC(=O)N(CCO)c3ccccc32)n1` (racemic) [Example 56, (±)-(S*)-(4,6-Dimethyl-pyrimidin-2-yloxy)-[(5S*)-1-(2-hydroxy-ethyl)-2-oxo-5-phenyl-2,3,4,5-tetrahydro-1H-benzo[e][1,4]diazepin-5-yl]-acetic acid], the 50% inhibitory concentration (IC50) in assay [1] stood at 4 nM; in assay [2], 83 nM.
As for `COC(=O)c1ccc(CN2C(=O)CN[C@](c3ccccc3)([C@H](Oc3nc(C)cc(C)n3)C(=O)O)c3ccccc32)cc1` (racemic) [Example 58, (±)-4-{(5S*)-5-[(S*)-Carboxy-(4,6-dimethyl-pyrimidin-2-yloxy)-methyl]-2-oxo-5-phenyl-2,3,4,5-tetrahydro-benzo[e][1,4]diazepin-1-ylmethyl}-benzoic acid methyl ester], the IC50 stood at 2 nM in assay [1] (read-out: IC50 ETA) and 29 nM in assay [2] (read-out: IC50 ETB).
Consider `Cc1cc(C)nc(O[C@H](C(=O)O)[C@@]2(c3ccccc3)NCC(=O)N(CCc3cn(C)c4ccccc34)c3ccccc32)n1` (racemic) [Example 68], for which the 50% inhibitory concentration (IC50) in assay [1] (read-out: IC50 ETA) turned out to be 1 nM; in assay [2] (read-out: IC50 ETB), 4 nM.
With `Cc1cc(C)nc(O[C@H](C(=O)O)[C@@]2(c3ccccc3)NCC(=O)N(CCc3ccccc3)c3ccccc32)n1` (racemic) [Example 78], the IC50 in assay [1] (read-out: IC50 ETA) is 3 nM; in assay [2] (read-out: IC50 ETB) it was 23 nM.
For `Cc1cc(C)c(CN2C(=O)CN[C@](c3ccccc3)([C@H](Oc3nc(C)cc(C)n3)C(=O)O)c3ccccc32)c(C)c1` (racemic) [Example 111], in that order: 3 nM and 10 nM.
As for `Cc1cc(C)nc(O[C@H](C(=O)O)[C@@]2(c3ccccc3)NCC(=O)N(c3ccccc3)c3ccccc32)n1` (racemic) [Example 117, (±)-(S*)-(4,6-dimethyl-pyrimidin-2-yloxy)-[(5S*)-2-oxo-1,5-diphenyl-2,3,4,5-tetrahydro-1H-benzo[e][1,4]diazepin-5-yl]-acetic acid], the half-inhibitory concentration (IC50) in assay [1] (read-out: IC50 ETA) came out at 61 nM; in assay [2] (read-out: IC50 ETB), 749 nM.
For `Cc1cc(C)nc(O[C@H](C(=O)O)[C@]2(c3ccccc3)c3ccccc3N(Cc3c(F)cc(F)cc3F)C(=O)CN2C)n1` (racemic) [Example 129, (±)-(S*)-(4,6-Dimethyl-pyrimidin-2-yloxy)-[(5S*)-4-methyl-2-oxo-5-phenyl-1-(2,4,6-trifluoro-benzyl)-2,3,4,5-tetrahydro-1H-benzo[e][1,4]diazepin-5-yl]-acetic acid], in that order: 6 nM and 353 nM.
For the molecule `COc1cc(OC)nc(O[C@H](C(=O)O)[C@@]2(c3ccccc3)NCC(=O)N(C)c3ccc(Cl)cc32)n1` (racemic) [Example 166, (±)-(1S*)-((5S*)-7-Chloro-1-methyl-2-oxo-5-phenyl-2,3,4,5-tetrahydro-1H-benzo[e][1,4]diazepin-5-yl)-(4,6-dimethoxy-pyrimidin-2-yloxy)-acetic acid], the Kb in assay [3] is 105 nM.
Consider `COc1cc(CN2C(=O)CN[C@](c3ccccc3)([C@H](Oc3nc(OC)cc(OC)n3)C(=O)O)c3cc(Cl)ccc32)cc(OC)c1` (racemic) [Example 167, (±)-(1S*)-[(5S*)-7-Chloro-1-(3,5-dimethoxy-benzyl)-2-oxo-5-phenyl-2,3,4,5-tetrahydro-1H-benzo[e][1,4]diazepin-5-yl]-(4,6-dimethoxy-pyrimidin-2-yloxy)-acetic acid], for which the figures for the IC50 in assay [1] (read-out: IC50 ETA) and in assay [2] (read-out: IC50 ETB) were 36 nM and 947 nM, respectively.
For `Cc1cc(C)nc(O[C@H](C(=O)O)[C@@]2(c3ccccc3)NCC(=O)N(C)c3ccc(Cl)cc32)n1` (racemic) [Example 170, (±)-(1S*)-((5S*)-7-Chloro-1-methyl-2-oxo-5-phenyl-2,3,4,5-tetra-hydro-1H-benzo[e][1,4]diazepin-5-yl)-(4,6-dimethyl-pyrimidin-2-yloxy)-acetic acid], the IC50 in assay [1] (read-out: IC50 ETA) is 15 nM; in assay [2] (read-out: IC50 ETB), 368 nM.
Regarding `Cc1cccc([C@]2([C@H](Oc3nc(C)cc(C)n3)C(=O)O)NCC(=O)N(C)c3ccccc32)c1` (racemic) [Example 187, (±)-(S*)-(4,6-Dimethyl-pyrimidin-2-yloxy)-[(5S*)-1-methyl-2-oxo-5-m-tolyl-2,3,4,5-tetrahydro-1H-benzo[e][1,4]diazepin-5-yl]-acetic acid], the IC50 in assay [1] (read-out: IC50 ETA) is 18 nM; in assay [2] (read-out: IC50 ETB) it was 180 nM.
As for `Cc1cc(C)nc(O[C@H](C(=O)O)[C@@]2(c3cccc(-c4ccccc4)c3)NCC(=O)N(Cc3c(F)ccc(F)c3F)c3ccccc32)n1` (racemic) [Example 213], the half-inhibitory concentration (IC50) in assay [1] (read-out: IC50 ETA) was determined as 3 nM; in assay [2] (read-out: IC50 ETB) it was 29 nM.
For the molecule `COc1ccc(CN2C(=O)CN[C@](c3ccc(F)c(C)c3)([C@H](Oc3nc(C)cc(C)n3)C(=O)O)c3ccccc32)cc1` (racemic) [Example 218, (±)-(S*)-(4,6-Dimethyl-pyrimidin-2-yloxy)-[(5S*)-5-(4-fluoro-3-methyl-phenyl)-1-(4-methoxy-benzyl)-2-oxo-2,3,4,5-tetrahydro-1H-benzo[e][1,4]diazepin-5-yl]-acetic acid], the results for the IC50 in assay [1] (read-out: IC50 ETA) and in assay [2] (read-out: IC50 ETB) were 5 nM and 39 nM, respectively.
For `CCCCc1ccc(CN2C(=O)CN[C@](c3cccc(CCCC)c3)([C@H](Oc3nc(C)cc(C)n3)C(=O)O)c3ccccc32)cc1` (racemic) [Example 223], in that order: 7 nM and 12 nM.
In the case of `COC(=O)[C@@H](c1ccccc1)N1C(=O)CN[C@](c2ccccc2)([C@H](Oc2nc(C)cc(C)n2)C(=O)O)c2ccccc21` (relative stereo) [Example 52, (±)-(S*)-(4,6-Dimethyl-pyrimidin-2-yloxy)-[(5S*)-1-((R/S)-methoxycarbonyl-phenyl-methyl)-2-oxo-5-phenyl-2,3,4,5-tetrahydro-1H-benzo[e][1,4]diazepin-5-yl]-acetic acid], the half-maximal inhibitory concentration (IC50) amounted to 11 nM in assay [1] (read-out: IC50 ETA) and 23 nM in assay [2] (read-out: IC50 ETB).
